Patent US8586604B2, “Inhibitors of the microsomal prostaglandin E2 synthase-1” (Boehringer Ingelheim International GmbH, priority 2010, dated 2013)

Molecular target: T1, recombinant human mPGES-1 (Homo sapiens, UniProt O14684)
T1 construct: made in house; host or cells: Rosetta E. coli (membrane/microsome fraction)
T1 sequence (O14684 1-152): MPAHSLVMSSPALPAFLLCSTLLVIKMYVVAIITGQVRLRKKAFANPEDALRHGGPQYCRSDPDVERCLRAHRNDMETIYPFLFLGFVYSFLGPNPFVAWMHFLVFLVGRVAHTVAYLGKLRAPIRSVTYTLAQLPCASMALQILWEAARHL
Test: mPGES-1 enzyme assay (HTRF detection of PGE2)
Type: biochemical
Conditions: recombinant human mPGES-1 microsomes, PGH2 2 μM, read-out: mPGES-1 inhibitory effect IC50
Method: Microsomes from Rosetta E. coli bacteria expressing recombinant human mPGES-1 can be derived as described below:
Inoculate 5 ml LB with Ampicilin (50 μg/ml) and Chloramphenicol (34 μg/ml) with bacteria from freeze culture. Incubate 8 h at 37° C. with 200 rpm. Thereafter, inoculate 500-1000 ml LB containing Amp and Chloro with the 5 ml on culture and grow to OD640 of 0.8-1.0.
Chill the culture to +4° C. before induction. Induce the culture with IPTG at a final concentration of 400 μM. Express the protein at room temp 18-23° C. with 200 rpm shaking over night.
The following steps can be performed on the following day: • 1. Spin down the cells in 250 ml centrifuge flasks for 15 min at 7000 rpm (Beckmann Coulte Avanti J-E centrifuge) • 2. Dissolve the pellet from 250 ml culture in 12.5 ml homogenization buffer • 3. (15 mM Tris-HCL pH8, 1 mM EDTA pH8, 0.25 mM Sucrose, 2.5 mM GSH, 1Tablet Protease inhibitor per 50 ml buffer) • 4. Disintegrate the cells by sonication, 5×10 seconds at 48% amplitude of a 750 W sonifier • 5. Add 2.5 ml MgCl2 (100 mM) and DNase 12.5 μl (0.8 mg/ml) and incubate on ice for 30 min • 6. Spin down the bacteria debris and save the supernatant, 7000 rpm for 15 min • 7. Isolate the protein containing membranes in the supernatant by ultracentrifugation 120000×g for 2 hour at 4° C. (Sorvall T880 rotor). • 8. Discard the supernatant and dissolve the pellet in 20 mM Potassium phosphate buffer pH7.4 (KH2PO4 and K2HPO4) buffer by sonication (5×10 s, 30% of a 50 W sonifier) and aliquot the enzyme and store aliquots at −80° C.
Before each experiment is performed an aliquot of the enzyme is thawed and it can then be dissolved in 0.1 M Potassium phosphate buffer pH7.4 (KH2PO4 and K2HPO4) buffer containing 2.5 mM GSH.
The aim of this assay is to determine the affinity of a test compound for the mPGES-1 enzyme.
47 μl of recombinant human mPGES-1 (˜0.5 μg protein/well) containing microsomal suspension in a buffer containing GSH, (2.5 mmol/L L-Glutathione reduced, dissolved in 0.1 mol/L Phosphat Buffer pH 7.4) is dispensed in a 384-well plate and thereafter 1 μl of the test compound(s) is/are added and incubated for 25 minutes at room temperature. The enzyme reaction is started by the addition of 2 ul PGH2 (final conc. 2 μM) dissolved in water-free Diglyme. After 60 seconds the reaction is terminated by addition of a stop solution containing FeCl2 (10 μL 0.074 mol/l FeCl2). The samples are diluted between 1:25 in PBS (Phosphate Buffered Saline). 10 μl of the diluted samples are transferred to 384-well low volume plate. In order to quantify the amount of PGE2 that has been formed, a homogenous time resolved fluorescent (HTRF) detecting of PGE2 has been performed using a commercially available kit from Cisbio according to the manufactures recommendation. This HTRF-based assay has been described in detail (see: Goedken et al., J Biomol Screen, 2008, 13(7), 619-625). Briefly, the diluted samples are mixed with 5 μl PGE2-d2 conjungate and 5 μl anti-PGE2 cryptate conjungate. After an incubation period of the plates over night, the fluorescence is measured by the use of an appropriate microplate reader.
The fluorescence of Europium cryptate (maxex=307 nm, maxem=620 nm) and d2-PGE2 (maxex=620 nm, maxem=665 nm) are measured.
The extent of the specific HTRF is measured as a ratio of the emission intensity at 665 nm vs. that at 620 nm at an excitation pulse of 320 nm. The quantification plate contains also wells with different concentrations of PGE2 as calibration curve for the calculation of the PGE2 concentrations from the HTRF ratio values.
From all mPGES enzyme assay the background is subtracted and the IC50 is calculated over a nonlinear regression with conventional software.

| Compound | IC50 [nM] |
| --- | --- |
| CC(C)(C)C(=O)NCc1ccc(Cl)c(Nc2nc3cc(C(=O)NCC(F)F)c(OCC(F)F)nc3n2CC(F)F)c1Cl [Example 14] | 1 |
| O=C(N[C@H]1CC[C@H](C(F)(F)F)CC1)c1cc2[nH]c(Nc3cc(CNC(=O)C4(C(F)(F)F)CC4)ccc3Cl)nc2nc1OCCF [Example 7] | 8 |
| COCCOc1nc2nc(Nc3cc(CNC(=O)C4(C(F)(F)F)CC4)ccc3Cl)[nH]c2cc1C(=O)N[C@H]1CC[C@H](C(F)(F)F)CC1 [Example 3] | 21 |
| CC(C)(C)C(=O)NCc1ccc(Cl)c(Nc2nc3cc(C(=O)N[C@H]4CC[C@H](C(F)(F)F)CC4)c(OCC(F)F)nc3n2CC(F)F)c1Cl [Example 15] | 4 |
| Cn1c(Nc2cc(CNC(=O)C(C)(C)C)ccc2Cl)nc2cc(C(=O)N[C@H]3CC[C@H](C(F)(F)F)CC3)c(OCC(F)F)nc21 [Example 2, N-{4-Chloro-3-[6-(trans-4-trifluoromethyl-cyclohexylcarbamoyl)-5-(2,2-difluoro-ethoxy)-3-methyl-3H-imidazo[4,5-b]pyridin-2-ylamino]benzyl}-2,2-dimethyl-propionamide] | 3 |
| O=C(N[C@H]1CC[C@H](C(F)(F)F)CC1)c1cc2nc(Nc3c(Cl)ccc(CNC(=O)C4(C(F)(F)F)CC4)c3Cl)[nH]c2nc1OCCOC(F)F [Example 12] | 1 |
| CC(C)(C)C(=O)NCc1ccc(Cl)c(Nc2nc3cc(C(=O)N[C@H]4CC[C@H](C(F)(F)F)CC4)c(OCC(F)F)nc3[nH]2)c1F [Example 156, N-{2-Fluoro-4-chloro-3-[6-(trans-4-trifluoromethyl-cyclohexylcarbamoyl)-5-(2,2-difluoro-ethoxy)-1H-imidazo[4,5-b]pyridin-2-ylamino]benzyl}-2,2-dimethyl-propionamide] | 1 |
| O=C(N[C@H]1CC[C@H](C(F)(F)F)CC1)c1cc2nc(Nc3cc(CNC(=O)C4(C(F)(F)F)CC4)ccc3Cl)[nH]c2nc1OCC(F)F [Example 5] | 4 |
| Cn1c(Nc2c(Cl)ccc(CNC(=O)C(C)(C)C)c2Cl)nc2cc(C(=O)N[C@H]3CC[C@H](C(F)(F)F)CC3)c(OCC(F)F)nc21 [Example 9, N-{2,4-Dichloro-3-[6-(trans-4-trifluoromethyl-cyclohexylcarbamoyl)-5-(2,2-difluoro-ethoxy)-3-methyl-3H-imidazo[4,5-b]pyridin-2-ylamino]benzyl}-2,2-dimethyl-propionamide] | 6 |

Other lines, results leading:

| IC50 [nM] | Compound |
| --- | --- |
| 3 | CC(C)(C)C(=O)NCc1ccc(Cl)c(Nc2nc3cc(C(=O)N[C@H]4CC[C@H](C(F)(F)F)CC4)c(OCC(F)F)nc3[nH]2)c1Cl [Example 8, N-{2,4-Dichloro-3-[6-(trans-4-trifluoromethyl-cyclohexylcarbamoyl)-5-(2,2-difluoro-ethoxy)-1H-imidazo[4,5-b]pyridin-2-ylamino]benzyl}-2,2-dimethyl-propionamide] |
| 8 | COCCOc1nc2c(cc1C(=O)N[C@H]1CC[C@H](C(F)(F)F)CC1)nc(Nc1cc(CNC(=O)C3(C(F)(F)F)CC3)ccc1Cl)n2C [Example 4] |
| 4 | CC(C)(C)C(=O)NCc1ccc(F)c(Nc2nc3cc(C(=O)N[C@H]4CC[C@H](C(F)(F)F)CC4)c(OCC(F)F)nc3[nH]2)c1F [Example 11] |
| 2 | CC(C)(C)C(=O)NCc1ccc(Cl)c(Nc2nc3cc(C(=O)Nc4ccc(F)c(Cl)c4)c(OCC(F)F)nc3[nH]2)c1Cl [Example 157] |
| 9 | Cn1c(Nc2cc(CNC(=O)C(C)(C)C)ccc2Cl)nc2cc(C(=O)Nc3ccc(Br)cc3)c(OCC(F)F)nc21 [Example 1, N-{4-Chloro-3-[6-(4-bromo-phenylcarbamoyl)-5-(2,2-difluoro-ethoxy)-3-methyl-3H-imidazo[4,5-b]pyridin-2-ylamino]benzyl}-2,2-dimethyl-propionamide] |
| 5 | Cn1c(Nc2c(F)ccc(CNC(=O)C(C)(C)C)c2F)nc2cc(C(=O)N[C@H]3CC[C@H](C(F)(F)F)CC3)c(OCC(F)F)nc21 [Example 10, N-{2,4-Difluoro-3-[6-(trans-4-trifluoromethyl-cylohexylcarbamoyl)-5-(2,2-difluoro-ethoxy)-3-methyl-3H-imidazo[4,5-b]pyridin-2-ylamino]benzyl}-2,2-dimethyl-propionamide] |
| 4 | Cn1c(Nc2cc(CNC(=O)C3(C(F)(F)F)CC3)ccc2Cl)nc2cc(C(=O)N[C@H]3CC[C@H](C(F)(F)F)CC3)c(OCCF)nc21 [Example 6] |
